Source: US12606529B2, “Sulfur and amide tropolone inhibitors of nucleotidyl transferases and uses therefor” (Saint Louis University, priority 2019, dated 2026)
Values after ≈ are worked out from the molar mass of the structure shown. Like-named read-outs stand apart in the source and are kept apart here.

Experiments:
HBV replication = HBV replication inhibition in HepDES19 cells (strand-preferential qPCR); conditions: Hepatitis B virus
Description: Cells used for toxicity and HBV studies.
HBV replication inhibition studies. HepDES19 cells were seeded in 96-well plates at 4×10^4 cells per well in the absence of tetracycline. Test compounds in a final DMSO concentration of 1% were applied to cells 48 hours after induction of HBV replication and cells were incubated with compounds for 72 hours. Cells were washed in 200 μL of phosphate buffered saline (PBS) and lysed in 150 μL of core lysis buffer (10 mM Tris pH 7.4, 1% Tween20, 150 mM NaCl). Cells were incubated at room temperate on an orbital shaker at 350 rpm for 40 minutes. Cell lysate was transferred to a 96 well polymerase chain reaction (PCR) plate and centrifuged at 3300×g for 5 minutes. The supernatant (50 μL) from the cell lysate was transferred to a 96-well PCR plate and mixed with 20 units of micrococcal nuclease and 100 μM CaCl2. The lysate was incubated for 1 hour at 37° C., and then the nuclease was inactivated at 70° C. for ten minutes. Qiagen protease (0.005 Anson units) was added to the lysate and the mixture was incubated overnight. Qiagen protease was then inactivated at 95° C. for ten minutes.
The crude lysate was used as the template for strand-preferential quantitative polymerase chain reaction (q-PCR) analysis. Quantitative PCR was performed with 40 cycles of 95° C. for 15 s and 60° C. for 1 minute employing the Kappa Probe Force universal PCR master mix.

human RNaseH1 = target: T1, human RNaseH1 (Homo sapiens, UniProt O60930); test: Biochemical inhibition of human RNaseH1 activity
T1 sequence (O60930 1-286): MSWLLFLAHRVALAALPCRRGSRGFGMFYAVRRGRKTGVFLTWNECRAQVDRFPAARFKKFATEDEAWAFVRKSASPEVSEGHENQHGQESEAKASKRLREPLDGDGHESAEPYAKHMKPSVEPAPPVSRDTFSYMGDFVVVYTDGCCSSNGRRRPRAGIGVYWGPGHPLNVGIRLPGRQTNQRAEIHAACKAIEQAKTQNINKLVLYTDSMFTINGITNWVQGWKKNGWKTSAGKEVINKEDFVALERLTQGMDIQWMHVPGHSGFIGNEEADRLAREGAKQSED
Description: Biochemical inhibition of human RNaseH1 activity. Quantitative inhibition of the human RNaseH1 in the biochemical assays was assessed using a molecular beacon assay as described previously (Edwards et al., 2017). Recombinant human RNaseH 1 (0.3 μg) was incubated with 100 nM RNA:DNA substrate, 50 mM HEPES pH 8.0, 100 mM NaCl, 2 mM Tris(2-carboxyethyl)phosphine hydrochloride (TCEP), 0.05% Tween20, 5 units of RNaseOut, test compounds (0 to 500 μM), and 5% DMSO in a 100 μL reaction volume. The substrate was formed by annealing a complementary RNA oligonucleotide to a hairpin DNA oligonucleotide to hold the hairpin DNA oligonucleotide in an open conformation. The DNA oligonucleotide has a 5′ fluorescein reporter and a 3′ black hole quencher. When the RNA is degraded from the substrate the DNA oligonucleotide closes to form a hairpin structure, decreasing in signal intensity. Reactions were initiated with 5 mM MgCl2 and fluorescence was read using a Synergy HTS multi-mode plate reader at 37° C. Alternatively, the HBV RNaseH version used was MBP-HRHgtCΔ5, a genotype C isolate which lacks the C-terminal 35 amino acids of the HBV RNaseH domain that are predicted to be unstructured. Quantitative inhibition of the human RNaseH1 in biochemical assays was assessed using a FRET-based RNaseH assay under conditions previously reported for an RNaseH molecular beacon assay (Edwards et al., 2017). […] Cleavage of the RNA strand released the fluorescein from quenching, increasing fluorescence. Reactions were monitored for 90 min at 37° C. in a plate reader and initial reaction rates were calculated. Reactions contained escalating concentrations of the compounds.

[1] = tested on: C. neoformans var. grubii, KN99; test: C. neoformans growth inhibition assay (limiting dilution); format: cell-based, Cryptococcus neoformans; conditions: Cryptococcus neoformans
Description: Cell types used for C. neoformans studies. All inhibition assays were performed with C. neoformans var. grubii, KN99 (serotype A, MAT). Two clinical strains of C. neoformans var. grubii, serotype A, were provided by Tamara Doering and Andre Spec. […] Cells were diluted to OD650 0.001 in YNB-02 02 (0.67% yeast nitrogen base, 0.2% dextrose, pH 7.0 with 50 mM MOPs)+1% DMSO prior to addition to the plates for the inhibition assays.
C. neoformans growth inhibition assays. Compounds were tested in a limiting dilution assay with a starting optical density (at 650 nm) of 0.001 in YNB-02 plus 1% DMSO. Cells plus compound were incubated in 96-well clear round bottom plates covered with a Breath-easy® membrane without shaking for 48 hours at 35° C. Before measuring cell density, plates were shaken on a microtiter plate shaker at 900 rpm for 3 minutes to resuspend cells and optical density was measured at 650 nm. […] Each assay was done in triplicate and all values are the average of two or more independent assays. The data are presented as the average cell density as a percent of DMSO-only treated cells. MICs are reported as the minimal concentration needed to inhibit 80% of C. neoformans growth relative to vehicle-treated controls.

in vitro = conditions: human, HepDES19 cells
Description: Cells used for toxicity and HBV studies. […] Cells were maintained in Dulbecco's modified Eagle's medium (DMEM)/F12 media supplemented with 10% fetal bovine serum (FBS) and 1% penicillin/streptomycin (P/S) with 1 μg/mL tetracycline. Synchronized expression of HBV pgRNA was induced by removing tetracycline from the culture medium.
Cytotoxicity Assays. Qualitative assessments of cytotoxicity were done visually by inspecting the cells in the primary screening assays. […] The next day the compounds were added at 0.78 to 100 μM in a final concentration of 1% (v/v) DMSO, and the cells were incubated for 24 hours under conditions identical to those employed for the viral replication inhibition assays. Mitochondrial toxicity was measured by incubating the cells with 0.25 mg/mL thiazolyl blue tetrazolium bromide (MTT, SigmaAldrich Chemical Co.), the cultures were incubated for 60 mM, metabolites were solubilized in acidic isopropanol, and absorbance was read at 570 nm. CC50 values were calculated by non-linear curve fitting using GraphPad Prism using the three-parameter variable-response log(inhibitor)-versus-response algorithm with the bottom value set to zero.

HSV-1 = test: Anti-HSV-1 replication assay (Vero cells, plaque titer); format: cell-based, herpes simplex virus 1; conditions: for log reduction at 5 µM / log reduction at 0.33 µM / log reduction at 1 µM: Human alphaherpesvirus 1, Vero, values separated by / are repeats; for log reduction at 5 µM: compound at 5 μM, read-out: HSV-1 suppression 5 μM; for log reduction at 0.33 µM: compound at 0.33 μM, read-out: HSV-1 suppression 0.33 μM; for log reduction at 1 µM: compound at 1 μM, read-out: HSV-1 suppression 1 μM
[2] = HepDES19, 72 h, Table 2 amides, HBV replication, HepDES19 cells, plus-polarity DNA, 72 h
[3] = Table 2 amides, read-out: HuRH1 IC50
[4] = 48 h, Table 2 amides, 48 h, 35° C., tested 0.19 to 50 μM, read-out: C. neoformans MIC80
[5] = HepDES19, read-out: EC50 against HBV replication
[6] = HepDES19, read-out: HBV EC50, Table 3 sulfur compounds, HBV replication, HepDES19 cells
[7] = 48 h, Table 3 sulfur compounds, 48 h, 35° C., read-out: C. neoformans MIC80
[8] = CC50, Table 3 sulfur compounds, MTT
[9] = read-out: MIC80 against C. neoformans

Row | Structure (SMILES) | EC50 (HBV replication; [2]) [µM] | IC50 (human RNaseH1; [3]) [µM] | MIC80 [1, 4] [µM] | CC50 at 24 h (in vitro; CC50 (μM), Table 2 amides, MTT) [µM] | EC50 (HBV replication; [6]) [µM] | MIC80 [1, 7] [µM] | CC50 at 24 h (in vitro; [8]) [µM] | log reduction at 1 µM (HSV-1; Table 3 sulfur compounds) | log reduction at 5 µM (HSV-1; Table 3 sulfur compounds) | further results
1 | Cc1cc(O)c(=O)c(O)cc1C(=O)N1CCSC1 [compound 712] | 0.77 ± 0.5 | 116 ± 67.6 | 18 (≈ 4.81 µg/mL) | 6.4 ± 0.8 | – | – | – | – | – | log reduction at 5 µM (HSV-1; Table 2 amides): 0.36
2 | COC(=O)[C@H](CCSC)NC(=O)c1cc(O)c(=O)c(O)cc1C [compound 796] | 1.1 ± 0.1 | 83.3 ± 40.2 | 18 (≈ 6.14 µg/mL) | 36 ± 24.1 | – | – | – | – | – | –
3 | Cc1cc(O)c(=O)c(O)cc1C(=O)N1CCN(C(c2ccc(F)cc2)c2ccc(F)cc2)CC1 [compound 1017] | 5.6 | 29.9 ± 10.7 | 6 (≈ 2.8 µg/mL) | 3.9 ± 1.4 | – | – | – | – | – | EC50 (HBV replication; [5]): > 2 µM
4 | Cc1cc(O)c(=O)c(O)cc1C(=O)N1CCN(C(=O)c2ccco2)CC1 [compound 800] | 0.52 ± 0.2 | 46.3 ± 10.2 | 26 (≈ 9.32 µg/mL) | 16.5 ± 11.4 | – | – | – | – | – | –
5 | CC(C)Sc1ccc(SC(C)C)c(O)c(=O)c1O [compound 696] | – | – | – | – | 12.7 | 1.4 (≈ 0.401 µg/mL) | 9.3 | 0.08 | 5.82 | log reduction at 0.33 µM (HSV-1; Table 3 sulfur compounds): -0.06
6 | Cc1cc(O)c(=O)c(O)cc1S(=O)(=O)c1ccc(-c2ccccc2)cc1 [compound 337] | – | – | – | – | 5.73 | 50 (≈ 18.4 µg/mL) | 47.4 | – | – | log reduction at 0.33 µM (HSV-1; Table 3 sulfur compounds): 0.28
7 | Cc1cc(O)c(=O)c(O)cc1C(=O)N1CCN(C(=O)c2cccnc2)CC1 [compound 918] | 1.45 ± 0.4 | 127 ± 98.1 | 50 (≈ 18.5 µg/mL) | 43.8 ± 10.7 | – | – | – | – | – | –
8 | CC(C)S(=O)(=O)c1ccc(S(=O)(=O)C(C)C)c(O)c(=O)c1O [compound 538] | – | – | – | – | 50 | 50 (≈ 17.5 µg/mL) | 100 | 0.74 | 0.21 | CC50 at 24 h (in vitro; CC50): 100 µM
9 | CCCCS(=O)(=O)c1ccc(S(=O)(=O)CCCC)c(O)c(=O)c1O [compound 536] | – | – | – | – | 50 | 50 (≈ 18.9 µg/mL) | 100 | 0.09 | 0.35 | CC50 at 24 h (in vitro; CC50): 100 µM
10 | CCCCCCS(=O)(=O)c1cccc(O)c(=O)c1O [compound 699] | – | – | – | – | 6.83 | 10 (≈ 2.86 µg/mL) | 13.1 | 0.2 | 4.39 | –
11 | Cc1cc(O)c(=O)c(O)cc1C(=O)N1CCN(c2ncccn2)CC1 [compound 1016] | 0.9 | 5.1 ± 2.7 | 18 (≈ 6.16 µg/mL) | 24.6 ± 40 | – | – | – | – | – | –
12 | CSc1cccc(O)c(=O)c1O [compound 385] | – | – | – | – | 4.4 | 24 (≈ 4.42 µg/mL) | 100 | – | 2.5 | CC50 at 24 h (in vitro; CC50): 100 µM
13 | CSc1ccc(SC)c(O)c(=O)c1O [compound 386] | – | – | – | – | 6.73 | 24 (≈ 5.53 µg/mL) | 68.9 | – | 0.51 | –
14 | CC(C)Sc1cccc(O)c(=O)c1O [compound 695] | – | – | – | – | 26.8 | 1.6 (≈ 0.34 µg/mL) | 21.1 | -0.23 | 2.28 | –
15 | Cc1cc(O)c(=O)c(O)cc1C(=O)N1CCN(Cc2c(F)cccc2Cl)CC1 [compound 1021] | 3.05 ± 0.6 | 44 ± 46.2 | 4.5 (≈ 1.83 µg/mL) | 10.4 ± 7.3 | – | – | – | – | – | EC50 (HBV replication; [5]): > 2 µM
16 | CCCCSc1cccc(O)c(=O)c1O [compound 693] | – | – | – | – | 47.3 | 0.9 (≈ 0.204 µg/mL) | 13.5 | 0.25 | 5.64 | MIC80 [1, 9]: ≤ 1 µM
17 | CCCCCCS(=O)(=O)c1ccc(S(=O)(=O)CCCCCC)c(O)c(=O)c1O [compound 700] | – | – | – | – | 49.8 | 50 (≈ 21.7 µg/mL) | 46 | 0.57 | 2.01 | log reduction at 0.33 µM (HSV-1; Table 3 sulfur compounds): 0.49; Inhibition of HSV-1 (HSV-1; in words): showed inhibition of HSV-1
18 | Cc1ccc(S(=O)(=O)c2cccc(O)c(=O)c2O)cc1 [compound 697] | – | – | – | – | 49.1 | 49 (≈ 14.3 µg/mL) | 35.3 | – | 0.01 | –
19 | O=c1c(O)cccc(SCc2ccccc2)c1O [compound 702] | – | – | – | – | 25 | 0.56 (≈ 0.146 µg/mL) | – | 3.23 | 5.79 | IC50 (human RNaseH1; Table 3 sulfur compounds, read-out: Hu RNaseH IC50): 31.7 µM; MIC80 [1, 9]: ≤ 1 µM; log reduction at 0.33 µM (HSV-1; Table 3 sulfur compounds): 0.13
